Read-outs that look alike come from different tables or passages of the source.
Experiments:
[1] = Human liver microsome stability; assay type: in vitro ADME; settings: 60 min, given as fraction
Procedure: (§1) Metabolic Stability and Plasma Stability. Test compound Working solution: 5 μL of compound stock solution (10 mM in dimethyl sulfoxide (DMSO)) were diluted with 495 μL of DMSO (Working solution concentration: 100 μM, 100% DMSO). Propantheline bromide Working solution: 5 μL of Propantheline bromide stock solution (10 mM in H2O) were diluted with 495 μL of H2O (Working solution concentration: 100 μM, 100% H2O)

[2] = test system: MDR1-MDCK I cells; assay: in vitro; settings: dog, MDCK-MDR1, 1.5 h, 2 µM, pH 7.4
Procedure: (§2) MDCKI MDR1 cell permeability assessment was performed to mimic the blood brain barrier. MDR1-MDCK I cells were seeded onto […] (PET) in 96-well Corning insert systems at 2.5×10^5 cells/mL until to 4-7 days for confluent cell monolayer formation. The transport buffer in the study was HBSS with 10.0 mM HEPES at pH 7.40+0.05. Test compounds were tested at 2.00 μM bi-directionally in duplicate. […] Final DMSO concentration was adjusted to less than 1%. The plate was incubated for 1.5 hours in CO2 incubator at 37±1° C., with 5% CO2 at saturated humidity without shaking. All samples after mixed with acetonitrile containing internal standard were centrifuged at 3220×g for 10 min. For all samples, 150 μL supernatant solution was diluted with 150 μL ultra-pure water for LC-MS/MS analysis. In addition, the efflux ratio of each compound was also determined. Test and reference compounds were quantified by LC-MS/MS analysis based on the peak area ratio of analyte/IS. After transport assay, Lucifer yellow rejection assay are applied to determine the cell monolayer integrity. Buffers are removed from both apical and basolateral chambers, followed by the addition of 75 μL of 100 μM lucifer yellow in transport buffer and 250 μL transport buffer in apical and basolateral chambers, respectively. […] After 30 minutes incubation, 20 μL of lucifer yellow samples are taken from the apical sides, followed by the addition of 60 μL of Transport Buffer. And then 80 μL of lucifer yellow samples are taken from the basolateral sides.
(§3) The apparent permeability coefficient Papp (cm/s) was calculated using the equation: Papp=(dCr/dt)×Vr/(A×C0) where dCr/dt is the cumulative concentration of compound in the receiver chamber as a function of time (μM/s); Vr is the solution volume in the receiver chamber (0.075 mL on the apical side, 0.25 mL on the basolateral side); A is the surface area for the transport, i.e. 0.0804 cm^2 for the area of the monolayer; CO is the initial concentration in the donor chamber (μM). […] Percent of lucifer yellow in basolateral well is calculated using the equation: Where RFUApical and RFUBasolateral are the relative fluorescence unit values of lucifer yellow in the apical and basolateral wells, respectively; VApical and VBasolateral are the volume of apical and basolateral wells (0.075 mL and 0.25 mL), respectively. The % Lucifer Yellow should be less than 1.0.

[3] = test system: MDR1; assay: in vitro; settings: dog
Procedure: as §2, §3

[4] = Human plasma stability; assay type: in vitro ADME; settings: both sexes, 37° C., up to 120 min, read-out: Human Plasma Stability T1/2
Procedure: as §1
Human plasma from 3 males and 3 females was obtained. Heparin was used as the anticoagulant. The pooled frozen plasma was thawed in a water bath at 37° C. prior to experiment. Plasma was centrifuged at 4000 rpm for 5 min and the clots were removed if any. Using an Apricot automation workstation, 98 μL/well of blank plasma were added to all 96-well reaction plates. (Blank, T0, T10, T30, T60 and T120). The appointed incubation time points are T0 (0 min), Tn (n=0, 10, 30, 60, 120 min). An Apricot automation workstation was used to add 2 μL/well of working solution (100 μM) to all reaction plates except Blank. (T0, T10, T30, T60 and T120). All reaction plates containing mixtures of compound and plasma were incubated at 37° C. in water bath. The reaction plates were incubated at 37° C., and timer was started. At the end of incubation, 500 μL of stop solution was added and mixed (200 ng/mL tolbutamide and 200 ng/ml labetalol in ACN) to precipitate protein. Each plate was sealed and shaken for 20 minutes. After shaking, each plate was centrifuged at 4000 rpm and 4° C. for 20 minutes. After centrifugation, an Apricot automation workstation was used to transfer 150 μL of supernatant from each reaction plate to its corresponding bioanaylsis plate. Each bioanalysis plate was sealed and shaken for 10 minutes prior to LC-MS/MS analysis. The % remaining of test compound after incubation in plasma was calculated using following equation: Remaining=100×(PAR at appointed incubation time/PAR at T0 time) where PAR is the peak area ratio of analyte versus internal standard (IS).

[5] = biological target: hACSS-2 (Homo sapiens (Human), UniProt Q9NR19); assay: Surface plasmon resonance (SPR) binding to immobilized hACSS-2
Procedure: SPR characterization. All binding assays were performed on a ProteOn XPR36 SPR Protein Interaction Array System (Bio-Rad Laboratories, Hercules, CA, USA). The instrument temperature was set at 25° C. for all kinetic analyses. ProteOn GLH sensor chips were preconditioned with two short pulses each (10 s) of 50 mM NaOH, 100 mM HCl, and 0.5% sodium dodecyl […]. Then the system was equilibrated with running buffer (1×PBS pH 7.4, 3% DMSO and 0.005% polysorbate 20). The surface of a GLH sensor chip was activated with a 1:100 dilution of a 1:1 mixture of 1-ethyl-3-(3-dimethylaminopropyl) carbodiimide hydrochloride (0.2 M) and sulfo-N-hydroxysuccinimide (0.05 M). […] Then, after unreacted protein had been washed out, excess active ester groups on the sensor surface were capped by a 5 min injection of 1M ethanolamine HCl (pH 8.0) at a flow rate of 5 μL/min. A reference surface was similarly created by immobilizing a nonspecific protein (IgG b12 anti-HIV-1 gp120; was obtained through the NIH AIDS Reagent Program, Division of AIDS, NIAID, NIH: Anti-HIV-1 gp120 Monoclonal (IgG1 b12) from Dr. Dennis Burton and Carlos Barbas) and was used as a background to correct nonspecific binding. Serial dilutions of hACSS-2 inhibitors were then prepared in the running buffer and injected at a flow rate of 100 μL/min, for a 50 s association phase, followed by up to a 5 min dissociation phase using the “one-shot kinetics” capability of the ProteOn instrument. Data were analyzed using the ProteOn Manager Software version 3.0 (Bio-Rad). The responses from the reference flow cell were subtracted to account for the nonspecific binding and injection artifacts. Experimental data were fitted to a simple 1:1 binding model. Experiments were performed in triplicate to detect kinetic and equilibrium dissociation constants (KD).
Overproduction of hACSS-2 was achieved using a prokaryotic expression system. […] The bacterial expressions were then spun down, the supernatant discarded, and the pellets resuspended. After the cells were lysed via sonication, the sample was subjected to ultracentrifugation, and the clarified lysate was applied to a Talon cobalt resin affinity column (Clonetech Laboratories, Mountain View, CA). The bound protein was eluted from the column using 1×PBS pH 7.4 with 0.3 M imidazole, then dialyzed overnight into 20 mM Tris-HCl pH 8.0, concentrated to 10 mg/mL, aliquoted, and stored at −80° C.

hACSS-2, sequence (Q9NR19 whole entry): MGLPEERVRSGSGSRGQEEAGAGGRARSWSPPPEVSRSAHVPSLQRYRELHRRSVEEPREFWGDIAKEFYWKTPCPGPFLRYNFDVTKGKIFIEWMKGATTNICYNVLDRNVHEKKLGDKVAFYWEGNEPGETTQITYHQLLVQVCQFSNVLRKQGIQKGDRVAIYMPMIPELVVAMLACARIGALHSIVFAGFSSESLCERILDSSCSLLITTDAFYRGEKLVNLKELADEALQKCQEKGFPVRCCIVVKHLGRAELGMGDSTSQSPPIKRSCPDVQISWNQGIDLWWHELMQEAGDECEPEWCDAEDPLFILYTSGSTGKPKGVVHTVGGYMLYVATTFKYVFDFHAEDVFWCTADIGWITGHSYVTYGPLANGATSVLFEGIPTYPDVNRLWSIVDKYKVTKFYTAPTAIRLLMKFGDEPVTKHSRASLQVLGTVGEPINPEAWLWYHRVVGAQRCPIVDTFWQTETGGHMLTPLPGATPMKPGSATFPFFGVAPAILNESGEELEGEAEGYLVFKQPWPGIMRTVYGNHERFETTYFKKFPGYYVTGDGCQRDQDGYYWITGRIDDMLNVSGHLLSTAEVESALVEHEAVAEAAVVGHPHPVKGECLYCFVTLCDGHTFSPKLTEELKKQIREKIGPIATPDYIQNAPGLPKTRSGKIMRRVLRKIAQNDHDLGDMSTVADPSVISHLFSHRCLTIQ

## N[C@H](C(=O)N1CCCC(c2ccccc2)(c2ccccc2)C1)C1CC1 [AD-8007]
[1]
  Human Liver Microsome Stability Remaining(T = 60 min): 0.7723
[1]; NCF
  Human Liver Microsome Stability Remaining(NCF = 60 min): 0.9563
[2]
  Note (efflux / BBB assessment): AD 8007 has a low efflux ratio
[3]; MDCK-MDR1, pH 7.4
  efflux ratio at 1.5 h, 2 µM: 8.96
[3]; MDCK-MDR1, pH 7.4, Mean % Solution Recovery A to B
  recovery at 1.5 h, 2 μM: 81.3%
[3]; MDCK-MDR1, pH 7.4, Mean % Solution Recovery B to A
  recovery at 1.5 h, 2 μM: 97%
[4]
  half-life at 2 µM: > 4.82 h
[5]; 1:1 binding model, mean, n = 3
  koff: 0.547 s⁻¹
  kon: 4790 M⁻¹ s⁻¹
[5]; Langmuir isotherm equilibrium fit, mean, n = 3, read-out: KD [μM] equilibrium
  Kd: 117 µM
[5]; global fit, mean, n = 3, read-out: KD [μM] kinetic/global
  Kd: 149 µM
[5]; read-out: Affinity (KD in μM) for hACSS-2 mean ± SD (n = 3), SPR, one site binding model isotherm, triplicate
  Kd: 89 ± 20 µM
